Measurements published in US6063814A, “Phorbol esters as anti-neoplastic and white blood cell elevating agents” (priority 1997, dated 2000).
Like-named read-outs stand apart in the source and are kept apart here.

How the values were obtained:
[1] = Chemical stability of TPA solutions on storage; type: physicochemical; conditions: dark
Protocol: 0.10, 0.125, 0.25 or 0.5 mg of TPA was dissolved in 1.3 ml 95-100% U.S.P. ethanol and 0.7 ml saline. Under sterile conditions, TPA was first dissolved in ethanol, then saline was added, mixed vigorously, bacteriologically filtered, and stored in sealed sterile amber vials containing either 0.10 mg/2 ml, 0.125 ml/2 ml or 0.25 mg/2 ml, 0.5 mg/2 ml.
0.10, 0.125, 0.25 or 0.5 mg of TPA was dissolved in 0.2 ml of ethanol, 1.2 ml of isopropanol and 0.6 ml saline. Under sterile conditions, TPA was first dissolved in the ethanol and isopropanol, then saline was added, and the mixture was vigorously mixed, bacteriologically filtered and stored in sealed sterile amber vials containing either 0.10 mg/2 ml, 0.125 ml/2 ml or 0.25 mg/2 ml or 0.5 mg/2 ml.

HL-60 cells = experiment: Effect of TPA in a human promyelocytic leukemia cell line (HL-60); type: cell-based; conditions: 10, 20 or 100 ng/ml
Protocol: 1. Effect of TPA in a Human Promyelocytic Leukemia Cell Line (HL-60):
HL-60 cells at 2×10^6 cells/ml were treated with TPA. The final concentrations of TPA were 10, 20, or 100 ng/ml. The ethanol content was less than 0.01%.

[2] = type: in vivo, humans
Protocol: TPA solution in a sterile syringe was injected into 200 ml of saline and mixed well for i.v. infusion.
2. The Toxicity and Side Effects of Different TPA Doses Administered Clinically:
One mg TPA in solution was mixed well with 200 ml of saline for i.v. infusion which was completed in 1 h at the rate of 16 μg/min. […] The above symptoms could be alleviated by giving the patients glucocorticoids. […] The cardiac, hepatic, renal and pulmonary functions were all found to be normal.
0.5 mg of TPA in solution was mixed well with 200 ml of saline for i.v. infusion which was completed in 1 h at the rate of 8 μg/min. […] Difficulty in breathing was not observed. The cardiac, hepatic, renal and pulmonary functions were all normal.
0.25 mg of TPA in solution was mixed well with 200 ml of saline for i.v. infusion which was completed in 1 h at the rate of 4 μg/min. […] The cardiac, hepatic, renal and pulmonary functions were all normal.

[3] = system: Peripheral White Blood Cells (WBC) and Hemoglobin (Hb); experiment: Peripheral white blood cell and hemoglobin counts in S180 cell-injected mice; type: in vivo; conditions: for WBC count: control 13.6±1.8; for Hb: control 134±15
Protocol: Effect of TPA on the Peripheral White Blood Cells (WBC) and Hemoglobin (Hb) Counts in S180 Cell-Injected Mice:
S180 cells were injected into mice. On the third day, the mice were given TPA i.p. at 50, 100 or 200 μg/kg/d for 7 days. On the second day after the treatment was completed, blood samples were taken from the tails of the treated mice for WBC and Hb analyses.

[4] = 0.25 mg/patient×4/week, i.v. infusion in 1 h
[5] = 0.5 mg/patient×2/week, i.v. infusion in 1 h
[6] = 1 mg/patient/week, i.v. infusion in 1 h

In the case of `CCCCCCCCCCCCCC(=O)O[C@@H]1[C@@H](C)[C@@]2(O)[C@@H](C=C(CO)C[C@]3(O)C(=O)C(C)=C[C@@H]23)[C@@H]2C(C)(C)[C@]12OC(C)=O` [TPA, Phorbol 12-Myristate-13-Acetate], the “chemical change on storage” value ([1]; cold temperature, up to one year) is reported as “no chemical change”, the “chemical change on storage” value ([1]; room temperature, up to two months) is reported as “no chemical change” and the differentiation to macrophages (HL-60 cells; after 4-6 days) is reported as “the majority of the cells were induced to differentiate to macrophages in a dose-dependent manner”. The “cell aggregation and attachment” value (HL-60 cells; after 3 hours) was “cell aggregation and attachment to the dish were observed”, the “proliferation of HL-60 cells” value (HL-60 cells; after 3 hours) was “stopped proliferating” and the morphological changes (HL-60 cells; after 48 h) was “there were morphological changes”. The Hb in urine [2, 4] was “No Hb was detected in the urine”, the “cardiac, hepatic, renal and pulmonary functions” value (“cardiac, hepatic” below) [2, 4] was “normal” and the chills and fever [2, 4] was “also observed, but to a much lesser extent than with the higher dosages”. For the same molecule, the difficulty in breathing [2, 4] was “no patient suffered difficulty in breathing”, the Hb in urine [2, 5] was “Occasionally, Hb was detected in patients urine” and the “cardiac, hepatic” value [2, 5] was “normal”. The difficulty in breathing [2, 5] was “not observed”, the tolerability ([2]; 0.5 mg/patient×2/week, versus 1 mg) was “tolerated the lower dose more easily” and the Hb in urine [2, 6] was “Hb was detected in the urine”. For the same molecule, the bleeding [2, 6] was “a minority of patients to bleed”, the “cardiac, hepatic” value [2, 6] was “normal” and the difficulty in breathing [2, 6] was “several patients suffered for a short period of time difficulty in breathing”. For the same molecule, the duration of chills [2, 6] was “about 30 min”, the duration of fever [2, 6] was 3 to 5 h and the “fever, patients' temperature” value [2, 6] was 37.5-39.5 °C. The onset of chills [2, 6] was “One hour after TPA administration”, the perspiration [2, 6] was “light to heavy perspiration” and the “reversibility of side effects” value [2, 6] was “short lived and reversible”. The local irritation ([2]; TPA application) was “strong local irritation”, the WBC count ([3]; i.p. 50 μg/kg/d for 7 d) was 16.1±7.4 ×10^9 /L and the Hb ([3]; i.p. 50 μg/kg/d for 7 d) was 136 ± 11 g/L. For the same molecule, the WBC count ([3]; i.p. 100 μg/kg/d for 7 d) was 18.7±3.0 ×10^9 /L, the Hb ([3]; i.p. 100 μg/kg/d for 7 d) was 149 ± 12 g/L and the WBC count ([3]; i.p. 200 μg/kg/d for 7 d) was 20.7±3.4 ×10^9 /L. The Hb ([3]; i.p. 200 μg/kg/d for 7 d) was 149 ± 10 g/L, the “effect on Hb levels” value ([3]; i.p. 50-200 μg/kg/d for 7 d) was “not greatly affected” and the “effect on peripheral WBC counts” value ([3]; i.p. 50-200 μg/kg/d for 7 d) was “could increase the peripheral WBC counts in mice in a dose-dependent manner”.
